Results published in patent US20100184799A1, “OXADIAZOLE BETA CARBOLINE DERIVATIVES AS ANTIDIABETIC COMPOUNDS” (priority 2009, published 2010).

How the values were obtained:
SSTR3 [1] = target: T1, SSTR3 (Homo sapiens, UniProt P32745); assay: SSTR3 functional antagonist assay: cAMP production with FSK + SS-14 in SSTR3 stable CHO cells; assay type: cell-based, human or mouse; design: […]; settings: […] FSK + 100 nM SS-14
Procedure: The effects of compounds that bind to human and murine SSTR3 with various affinities on the functional activity of the receptor were assessed by measuring cAMP production in the presence of Forskolin (FSK) along or FSK plus SS-14 in SSTR3 expressing CHO cells. FSK acts to induce cAMP production in these cells by activating adenylate cyclases, whereas SS-14 suppresses cAMP production in the SSTR3 stable cells by binding to SSTR3 and the subsequent inhibition of adenylate cyclases via an alpha subunit of GTP-binding protein (Gαi).
The amount of cAMP produced during the incubation was also quantified with the Lance cAMP assay. […] The % Inhibition of each compound was calculated using the following formula:
% Inhibition=[1−(unknown cAMP/FSK+SS-14 cAMP)]×100

SSTR3 [2] = target: T1, SSTR3; assay: SSTR3 receptor-ligand binding assay, (3-125I-Tyr11)-SRIF-14 radioligand, CHO-K1 cell membranes; design: expressed in transfected cells; membranes used; settings: cloned human SSTR3, CHO-K1 membranes, 0.1 nM radioligand
Procedure: The receptor-ligand binding assays of all 5 subtype of SSTRs were performed with membranes isolated from Chinese hamster ovary (CHO)—K1 cells stably expressing the cloned human somatostatin receptors in 96-well format as previous reported.
The stable cell lines for SSTR1-SSTR5 were developed by stably transfecting with DNA for all five SSTRs using Lipofectamine. […] The assay buffer consisted of 50 mM TrisHCl (pH 7.8) with 1 mM EGTA, 5 mM MgCl2, leupeptin (10 μg/mL), pepstatin (10 μg/mL), bacitracin (200 μg/mL), and aprotinin (0.5 μg/mL). CHO—K1 cell membranes, radiolabeled somatostatin, and unlabeled test compounds were resuspended or diluted in this assay buffer. Unlabeled test compounds were examined over a range of concentrations from 0.01 nM to 10,000 nM.

T1 sequence (P32745 whole entry): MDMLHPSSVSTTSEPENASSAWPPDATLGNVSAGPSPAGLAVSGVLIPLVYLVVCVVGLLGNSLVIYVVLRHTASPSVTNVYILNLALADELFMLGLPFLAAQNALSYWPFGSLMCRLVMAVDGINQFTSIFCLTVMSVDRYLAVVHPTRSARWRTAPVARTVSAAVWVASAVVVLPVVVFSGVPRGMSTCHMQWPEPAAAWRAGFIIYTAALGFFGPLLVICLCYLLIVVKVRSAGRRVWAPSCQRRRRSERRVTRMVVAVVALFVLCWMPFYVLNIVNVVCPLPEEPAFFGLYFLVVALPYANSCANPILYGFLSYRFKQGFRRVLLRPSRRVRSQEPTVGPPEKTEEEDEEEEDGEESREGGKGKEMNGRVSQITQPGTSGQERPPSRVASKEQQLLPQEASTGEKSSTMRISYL

Row | Compound | EC50 (SSTR3 [1]) | Ki (SSTR3 [2])
1 | Oc1nnc(C2(c3ccccc3)N[C@@H](c3nc(-c4ccc(F)cc4)c[nH]3)Cc3c2[nH]c2ccccc32)o1 (mixture of isomers) [Example 10] | 10.7 nM | 3.3 nM
2 | Cn1nc(C2(c3ccccc3)NC(c3nc(-c4ccc(F)cn4)c[nH]3)Cc3c2[nH]c2ccccc32)oc1=O (single isomer, unassigned) [Example 12] | 5.9 nM | 1.2 nM
3 | Cn1cc(C2(c3nn(C)c(=O)o3)N[C@@H](c3nc(-c4ccc(F)cc4)c[nH]3)Cc3c2[nH]c2ccccc32)cn1 (single isomer, unassigned) [Example 23] | 2.3 nM | 1.2 nM
4 | Cn1nc(C2(c3ccc(C#N)cc3)NC(c3nc(-c4ccc(F)cc4)c[nH]3)Cc3c2[nH]c2ccccc32)oc1=O (single isomer, unassigned) [Example 14] | 5.4 nM | 1.2 nM
5 | Cn1nc(C2(c3ccccc3)NC(c3nc(-c4ccc(F)cn4)c[nH]3)Cc3c2[nH]c2ccccc32)oc1=O (single isomer, unassigned) [Example 11] | 74.1 nM | 52.2 nM
6 | COCc1nc(C2(c3nnc(O)o3)N[C@@H](c3nc(-c4ccc(F)cn4)c[nH]3)Cc3c2[nH]c2ccccc32)no1 (single isomer, unassigned) [Example 39] | 12.5 nM | 
7 | Cn1cc(C2(c3nnc(O)o3)N[C@@H](c3nc(-c4ccc(F)cc4)c[nH]3)Cc3c2[nH]c2ccccc32)cn1 (single isomer, unassigned) [Example 18] | 1.1 nM | 
8 | CSc1nnc(C2(c3cnn(C)c3)N[C@@H](c3nc(-c4ccc(F)cc4)c[nH]3)Cc3c2[nH]c2ccccc32)o1 (some centres unmarked) [Example 58] | 1.9 nM | 0.9 nM
9 | Oc1nnc(C2(c3cnn(C4CC4)c3)N[C@@H](c3nc(-c4ccc(F)cn4)c[nH]3)Cc3c2[nH]c2ccccc32)o1 (single isomer, unassigned) [Example 37] | 0.6 nM | 
10 | CCn1nc(C2(c3noc(C)n3)N[C@@H](c3nc(-c4ccc(F)cn4)c[nH]3)Cc3c2[nH]c2ccccc32)oc1=O (single isomer, unassigned) [Example 9] | 2.6 nM | 4.2 nM
11 | Cn1nc(C2(c3cnn(C4CC4)c3)N[C@@H](c3nc(-c4ccc(F)cn4)c[nH]3)Cc3c2[nH]c2ccccc32)oc1=O (single isomer, unassigned) [Example 59] | 0.8 nM | 
12 | CCn1nnc(C2(c3nn(C)c(=O)o3)N[C@@H](c3nc(-c4ccc(F)cn4)c[nH]3)Cc3c2[nH]c2ccccc32)n1 (single isomer, unassigned) [Example 47] | 74.4 nM | 
13 | COCc1nc(C2(c3nn(C)c(=O)o3)N[C@@H](c3nc(-c4ccc(F)cn4)c[nH]3)Cc3c2[nH]c2ccccc32)no1 (single isomer, unassigned) [Example 42] | 3.2 nM | 
14 | Cn1nnc(C2(c3nnc(O)o3)N[C@@H](c3nc(-c4ccc(F)cn4)c[nH]3)Cc3c2[nH]c2ccccc32)n1 (single isomer, unassigned) [Example 43] | 1070 nM | 
15 | Cc1nc(C2(c3nnc(O)o3)NC(c3nc(-c4ccc(F)cc4)c[nH]3)Cc3c2[nH]c2ccccc32)no1 (mixture of isomers) [Example 38] | 24.6 nM | 
16 | Cn1cc(C2(c3nnc(N)o3)N[C@@H](c3nc(-c4ccc(F)cc4)c[nH]3)Cc3c2[nH]c2ccccc32)cn1 (single isomer, unassigned) [Example 52] | 8 nM | 13.3 nM
17 | CSc1nnc(C2(c3cnn(C)c3)NC(c3nc(-c4ccc(F)cn4)c[nH]3)Cc3c2[nH]c2ccccc32)o1 (mixture of isomers) [Example 57] | 0.8 nM | 
18 | Cn1cc(C2(c3nnc(O)o3)N[C@@H](c3nc(-c4ccc(F)cn4)c[nH]3)Cc3c2[nH]c2ccccc32)cn1 (single isomer, unassigned) [Example 20] | 680 nM | 
19 | Cn1nc(C2(c3ccccc3)N[C@@H](c3nc(-c4ccc(F)cc4)c[nH]3)Cc3c2[nH]c2ccccc32)oc1=O (single isomer, unassigned) [Example 2] | 29.1 nM | 31.4 nM

Row | Compound | EC50 (SSTR3 [1]) | Ki (SSTR3 [2])
20 | CCn1cc(C2(c3nn(C)c(=O)o3)N[C@@H](c3nc(-c4ccc(F)cc4)c[nH]3)Cc3c2[nH]c2ccccc32)cn1 (mixture of isomers) [Example 36] | 1.9 nM | 1.1 nM
21 | CCOC(=O)Cn1nc(C2(c3cnn(CC)c3)N[C@@H](c3nc(-c4ccc(F)cn4)c[nH]3)Cc3c2[nH]c2ccccc32)oc1=O (single isomer, unassigned) [Example 34] | 0.5 nM | 0.9 nM
22 | Cn1nc(C2(c3ccc(C#N)cc3)NC(c3nc(-c4ccc(F)cc4)c[nH]3)Cc3c2[nH]c2ccccc32)oc1=O (single isomer, unassigned) [Example 15] | 30.5 nM | 2 nM
23 | CCn1nc(C2(c3noc(C)n3)N[C@@H](c3nc(-c4ccc(F)cn4)c[nH]3)Cc3c2[nH]c2ccccc32)oc1=O (single isomer, unassigned) [Example 8] | 18 nM | 23.7 nM
24 | CCn1nc(C2(c3nnn(C)n3)N[C@@H](c3nc(-c4ccc(F)cn4)c[nH]3)Cc3c2[nH]c2ccccc32)oc1=O (single isomer, unassigned) [Example 48] | 63.4 nM | 
25 | CCn1nc(C2(c3noc(COC)n3)N[C@@H](c3nc(-c4ccc(F)cn4)c[nH]3)Cc3c2[nH]c2ccccc32)oc1=O (single isomer, unassigned) [Example 40] | 3 nM | 
26 | Cn1cc(C2(c3nnc(N)o3)N[C@@H](c3nc(-c4ccc(F)cc4)c[nH]3)Cc3c2[nH]c2ccccc32)cn1 (single isomer, unassigned) [Example 53] | 0.2 nM | 
27 | Cc1nc(C2(c3nnc(N)o3)NC(c3nc(-c4ccc(F)cc4)c[nH]3)Cc3c2[nH]c2ccccc32)no1 (mixture of isomers) [Example 56] | 17.8 nM | 
28 | CCn1nc(C2(c3ccc(C#N)cc3)N[C@@H](c3nc(-c4ccc(F)cn4)c[nH]3)Cc3c2[nH]c2ccccc32)oc1=O (single isomer, unassigned) [Example 16] | 11 nM | 
29 | Cn1cc(C2(c3nn(C)c(=O)o3)N[C@@H](c3nc(-c4ccc(F)cc4)c[nH]3)Cc3c2[nH]c2ccccc32)cn1 (single isomer, unassigned) [Example 22] | 6.1 nM | 
30 | CCn1nc(C2(c3noc(COC)n3)N[C@@H](c3nc(-c4ccc(F)cn4)c[nH]3)Cc3c2[nH]c2ccccc32)oc1=O (single isomer, unassigned) [Example 41] | 19 nM | 
31 | CCn1cc(C2(c3nnc(O)o3)NC(c3nc(-c4ccc(F)cc4)c[nH]3)Cc3c2[nH]c2ccccc32)cn1 (mixture of isomers) [Example 35] | 1.8 nM | 
32 | CCn1nnc(C2(c3nn(C)c(=O)o3)N[C@@H](c3nc(-c4ccc(F)cn4)c[nH]3)Cc3c2[nH]c2ccccc32)n1 (single isomer, unassigned) [Example 46] | 21.4 nM | 
33 | Cn1nc(C2(c3ccccc3)N[C@@H](c3nc(-c4ccc(F)cc4)c[nH]3)Cc3c2[nH]c2ccccc32)oc1=O (single isomer, unassigned) [Example 1] | 3.8 nM | 0.8 nM
34 | CCn1nnc(C2(c3nnc(O)o3)N[C@@H](c3nc(-c4ccc(F)cn4)c[nH]3)Cc3c2[nH]c2ccccc32)n1 (single isomer, unassigned) [Example 45] | 32.6 nM | 
35 | CCn1nc(C2(c3ccc(C#N)cc3)N[C@@H](c3nc(-c4ccc(F)cn4)c[nH]3)Cc3c2[nH]c2ccccc32)oc1=O (single isomer, unassigned) [Example 17] | 25.6 nM | 
36 | CCn1nnc(C2(c3nnc(O)o3)N[C@@H](c3nc(-c4ccc(F)cn4)c[nH]3)Cc3c2[nH]c2ccccc32)n1 (single isomer, unassigned) [Example 44] | 2000 nM | 
37 | N#Cc1ccc(C2(c3nnc(O)o3)N[C@@H](c3nc(-c4ccc(F)cc4)c[nH]3)Cc3c2[nH]c2ccccc32)cc1 (mixture of isomers) [Example 13] | 18.9 nM | 9.2 nM
38 | Cn1cc(C2(c3nnc(O)o3)N[C@@H](c3nc(-c4ccc(F)cc4)c[nH]3)Cc3c2[nH]c2ccccc32)cn1 (single isomer, unassigned) [Example 19] | 47.5 nM | 
